US8332025B2, “Method and system for detecting electrophysiological changes in pre-cancerous and cancerous tissue and epithelium” (Epi-Sci, LLC, priority 2005, dated 2012)
Like-named read-outs stand apart in the source and are kept apart here.

Columns and labels:
[1] = tested on: distal colon; assay: Transepithelial potential (VT) of colon during treatment; assay type: in vivo, CF1 mice; settings: administered over the same period (four weeks)
[2] = tested on: colonocyte cell membrane; settings: cited from earlier work
[3] = tested on: apical K+ channels of human colonic mucosa; assay: Short circuit current of human colonic epithelium ex-vivo (FIG. 12); settings: 30 mM mucosal; normal colon; 0.1 mM amiloride; elevated serosal K+
Procedure: The potassium permeability of the apical membrane of human colonic mucosa (P^Ka) was determined in surgical specimens of controls and grossly normal-appearing mucosa obtained 10-30 cm proximal to colorectal adenocarcinomas. The mucosa was, mounted in Using chambers and the basolateral, membrane resistance and voltage were nullified by elevating the K^+ in the serosal bathing solution. The apical sodium (Na^+) conductance was blocked with 0.1 mM amiloride. This protocol reduces the equivalent circuit model of the epithelium to an apical membrane conductance and electromotive force in parallel with the paracellular pathway as has been verified by microelectrode studies. […] In cancer-bearing colon the reduction in Isc is to −65 μA/cm^2. The serosal bath was remained constant at 125 mM [K].

[4] = tested on: breast epithelium; settings: 20 μM luminal, cited from earlier work
[5] = tested on: benign human breast epithelial cells; assay: Transepithelial potential of monolayers in Ussing chambers (FIG. 8), benign epithelia; assay type: cell-based; settings: increasing doses 0 to 0.8 μM
Procedure: (§1) It should be noted, that the instantaneous response, illustrated in FIG. 8, is greater in malignant epithelia, whereas the chronic or sustained exposure to estradiol results in a lower increase in TEP (transepithelial, electropotential) in malignant cells. Concurrent measurement of surface electropotential and impedance allow the more accurate diagnosis of cancer. […] The cells were grown, as monolayers on Millipore filters and grew to confluence in 7 to 10 days. The epithelia were then mounted in modified Using chambers and the TEP was measured using a voltage clamp. Increasing doses of estradiol between 0 and 0.8 μM were added (x-axis). The transepithelial potential was measured after each addition and the TEP was measured (y-axis). The different dose response is apparent for benign and malignant epithelia. Malignant epithelia have a lower TEP but undergo an instantaneous increase in TEP of approximately 9 mV (becomes more electronegative and reaches a level of <−6 mV) after exposure to only 0.1 μM estradiol and then depolarize to approximately −2 mV with increasing doses of estradiol up to about 0.5 μM. […] 0.3 μM and then remain persistently elevated (higher electro negativity), unlike the malignant epithelia, with increasing doses of estradiol.

[6] = tested on: Malignant and transformed cells; assay: Cell membrane potential, potentiometric fluorescent probe (FIG. 7), malignant and transformed cells; assay type: cell-based, human; settings: estradiol present in the culture medium; −31 to −35 mV in its absence
Procedure: (§2) Measurements were made using a potentiometric fluorescent probe, and ratiometric measurements, which are calibrated using valinomycin and [K^+]-gradients. Ψs were measured in the presence (closed circles) and absence (open circles) of estradiol (the active, metabolite of estrogen). Each symbol is the mean measurement. The upper error bar is the standard error of the mean, and the lower error bar is the 95% confidence level for the observations. The addition of estrogen to cultured breast epithelial cells results in an instantaneous increase in Ψ (data not shown) as well as the transepithelial potential see. FIG. 8. Transepithelial potential (VT) of an epithelium is the sum of the apical (luminal) cell membrane potential (VA) and the basolateral (abluminal) cell membrane potential (VBL). Therefore VT=VA+VBL (changes in VA and/or VBL will therefore alter VT or transepithelial potential). […] Malignant and transformed cells have a Ψ of between −31 and −35 mV in the absence of estradiol and approximately 50 mV when estradiol is present in the culture medium.

[7] = tested on: benign breast epithelial cells; assay: Cell membrane potential, potentiometric fluorescent probe (FIG. 7), benign cells; assay type: cell-based, human; settings: estradiol added to the culture media; approximately −50 mV in its absence
Procedure: as §2

[8] = tested on: malignant human breast epithelial cells; assay: Transepithelial potential of monolayers in Ussing chambers (FIG. 8), malignant epithelia; assay type: cell-based
Procedure: as §1

Question: Which “effect on transepithelial potential (VT)” value [1] does the source give for `O=c1[nH]cc(F)c(=O)[nH]1` [5-fluorouracil] here?
Answer: did not cause a reduction in VT

Question: What does the source list for `CNNC` [DMH, 1,2 dimethylhydrazine]?
Answer: VA (apical membrane voltage) ([2]; after 6 weeks of treatment, from −74.9 mV): −61.4 mV; VA (apical membrane voltage) ([2]; by 20 weeks of treatment): −34 mV

Question: Which “effect on short circuit current (Isc)” value [3] does the source give for `CC[N+](CC)(CC)CC` [TEA] here?
Answer: abrupt increase in Isc

Question: For `N=C(N)NC(=O)c1nc(Cl)c(N)nc1N` [amiloride], which “increase in transepithelial resistance” value [4] is on record?
Answer: 17%

Question: And the “depolarization of the transepithelial potential (change)” value ([4]; from −5.9±0.5 mV, mean±SEM)?
Answer: +3.1±0.5 mV

Question: For `C[C@]12CC[C@@H]3c4ccc(O)cc4CC[C@H]3[C@@H]1CC[C@@H]2O` [estradiol, 17-β-estradiol], which “dose at which the TEP response peaks” value [5] is on record?
Answer: ~0.3 µM

Question: And the “cell membrane potential (Ψ)” value [6]?
Answer: approximately 50 mV

Question: What about the “cell membrane potential (Ψ)” value [7] of the same molecule?
Answer: ~−70 mV

Question: And the TEP level reached ([8]; 0.1 μM)?
Answer: < −6 mV

Question: What about the “instantaneous increase in TEP” value ([8]; 0.1 μM) of the same molecule?
Answer: approximately 9 mV

Question: What about the “TEP after depolarization with increasing doses” value ([8]; up to about 0.5 μM) of the same molecule?
Answer: approximately −2 mV
